Where two headings read alike, the source gives them in different places.
Tests used:
Type in all cases: physicochemical
[1] = Selection of a solvent for the active component: solubility judged by naked eye; conditions: thermodynamic from solid, read-out: Judgment of solubility (by naked eye)
Procedure: First, 1 mg of the active component (KRN7000) was weighed and stirred in 100 ml of a variety of solvents (Table 3) in a heated bath to 80° C. for 20 minutes in order to form a solution having a concentration of 10 μg/ml. With respect to the solvents which were judged to have successfully dissolved 10 μg/ml of the active component, dissolution was further tried in the same manner as above in order to form a solution having a concentration of 100 μg/ml. With respect to the solvents which were judged to have successfully dissolved 100 μg/ml of the active component, dissolution was further tried in the same manner as above in order to form a solution having a concentration of 200 μg/ml. After cooling with running water, the solubility of the component was judged.
The solubility of the component was judged by the test described below. First, transparent colorless glass vials having a volume of 5 ml were charged with about 1.5 ml portion of each sample and sealed up. The vial was cleaned outside and placed beneath the white light source in a darkroom for observation with naked eye at the position of a luminous intensity of about 5,000 lux. When the sample was clear with no precipitates, it was judged that the active component was dissolved.

[2] = Optimal amount of Polysorbate 20: solubility of solutions after storage, by naked eye; design: key: +: not dissolved (or deposited); −: dissolved; conditions: KRN7000 200 μg/ml, stored as solution 25° C.
Procedure: Next, 20 mg of the active component (KRN7000) was weighed and stirred in 100 ml of the Polysorbate solutions having a variety of concentrations in a heated bath at 80° C. for 20 minutes in order to form a solution. After cooling with running water, the mixture was filtered through a 0.22 μm filter, and transparent colorless glass vials having a volume of 5 ml were charged with a 2 ml portion of each of a variety of solutions and sealed up.
These samples were stored at 25° C. for 2 weeks, and judged of their solubility. The samples judged in solution were further stored, and judged again of their solubility after 1 month.
The solubility was judged by cleaning the outside of the vial and placing it beneath the white light source in the darkroom for observation with naked eye at the position of a luminous intensity of about 5,000 lux. When the sample was clear with no precipitates, it was judged that the active component was dissolved.
In the table, the variations with the passage of time after storage represent the solubility when stored in the form of solution.

[3] = Addition effects of sodium deoxycholate and histidine in the absence of a sugar; conditions: lyophilized, Polysorbate 20 0.5%, no sugar, 1%, 50° C.
Procedure: Addition effects of sodium deoxycholate and histidine in the absence of a sugar as the excipient was examined.
First, Polysorbate 20 was dissolved in distilled water in a concentration of 0.5%, and histidine or sodium deoxycholate in a concentration of 1.0%. Next, 20 mg of the active component (KRN7000) was weighed and stirred in 100 ml of the solvents in a heated bath to 80° C. for 20 minutes in order to form a solution. After cooling with running water, the mixture was filtered through a 0.22 μm filter, and transparent colorless glass vials having a volume of 5 ml were charged with a 1 ml portion of each of a variety of solutions thus obtained and subjected to lyophilization. Lyophilization was carried out under the condition of preliminary freezing at −40° C. for 2 hours and drying at −20° C. for 24 hours, 10° C. for 12 hours, and finally at 25° C. for 5 hours to give the lyophilized product. The degree of vacuum was set at 0.1 Torr or less during drying step.
After the lyophilization step, the lyophilized composition thus obtained was stored at 50° C. After storage for 3 days or 2 weeks, the lyophilized composition was reconstituted in 1 ml of distilled water for injection, left standing for 30 minutes, and solubility was judged when the foams generated on reconstitution disappeared. […]

CCCCCCCCCCCCCCCCCCCCCCCCCC(=O)N[C@@H](CO[C@H]1O[C@H](CO)[C@H](O)[C@H](O)[C@H]1O)[C@H](O)[C@H](O)CCCCCCCCCCCCCC [KRN7000, (2S,3S,4R)-1-(α-D-galactopyranosyloxy)-2-hexacosanoylamino-3,4-octadecanediol]
> 200 µg/mL: solubility at 20 min ([1]; 0.5% Polysorbate 20, 80 °C, aqueous with cosolvent or surfactant or cyclodextrin, solvent 0.5% Polysorbate 20, KRN7000 200 μg/ml) | solubility at 20 min ([1]; Ethanol, 80 °C, organic solvent or mixture, solvent Ethanol, KRN7000 200 μg/ml)
< 10 µg/mL: solubility at 20 min ([1]; 0.5% Cremophor, 80 °C, aqueous with cosolvent or surfactant or cyclodextrin, solvent 0.5% Cremophor, KRN7000 10 μg/ml) | solubility at 20 min ([1]; 0.5% HCO 50, 80 °C, aqueous with cosolvent or surfactant or cyclodextrin, solvent 0.5% HCO 50, KRN7000 10 μg/ml) | solubility at 20 min ([1]; 0.5% HCO 60, 80 °C, aqueous with cosolvent or surfactant or cyclodextrin, solvent 0.5% HCO 60, KRN7000 10 μg/ml) | solubility at 20 min ([1]; 0.5% Polyoxamer 188, 80 °C, aqueous with cosolvent or surfactant or cyclodextrin, solvent 0.5% Polyoxamer 188, KRN7000 10 μg/ml) | solubility at 20 min ([1]; 1N HCl, 80 °C, simulated gastric fluid, solvent 1N HCl, KRN7000 10 μg/ml) | solubility at 20 min ([1]; 1N NaOH, 80 °C, aqueous buffer, solvent 1N NaOH, KRN7000 10 μg/ml) | solubility at 20 min ([1]; Distilled water, 80 °C, water, solvent Distilled water, KRN7000 10 μg/ml)
> 10 µg/mL: solubility at 20 min ([1]; 0.5% Polysorbate 20, 80 °C, aqueous with cosolvent or surfactant or cyclodextrin, solvent 0.5% Polysorbate 20, KRN7000 10 μg/ml) | solubility at 20 min ([1]; 0.5% Polysorbate 80, 80 °C, aqueous with cosolvent or surfactant or cyclodextrin, solvent 0.5% Polysorbate 80, KRN7000 10 μg/ml) | solubility at 20 min ([1]; Ethanol, 80 °C, organic solvent or mixture, solvent Ethanol, KRN7000 10 μg/ml) | solubility at 20 min ([1]; Glycerol, 80 °C, organic solvent or mixture, solvent Glycerol, KRN7000 10 μg/ml) | solubility at 20 min ([1]; Macrogol 400, 80 °C, organic solvent or mixture, solvent Macrogol 400, KRN7000 10 μg/ml) | solubility at 20 min ([1]; Propylene glycol, 80 °C, organic solvent or mixture, solvent Propylene glycol, KRN7000 10 μg/ml)
−: Variation with the passage of time after storage (by naked eye) ([2]; Polysorbate 20 0.3%, 2 weeks) | Variation with the passage of time after storage (by naked eye) ([2]; Polysorbate 20 0.5%, 2 weeks) | Variation with the passage of time after storage (by naked eye) ([2]; Polysorbate 20 1.0%, 2 weeks) | Variation with the passage of time after storage (by naked eye) ([2]; Polysorbate 20 2.0%, 2 weeks) | Variation with the passage of time after storage (by naked eye) ([2]; Polysorbate 20 4.0%, 2 weeks) | Variation with the passage of time after storage (by naked eye) ([2]; Polysorbate 20 8.0%, 2 weeks)
> 100 µg/mL: solubility at 20 min ([1]; 0.5% Polysorbate 20, 80 °C, aqueous with cosolvent or surfactant or cyclodextrin, solvent 0.5% Polysorbate 20, KRN7000 100 μg/ml) | solubility at 20 min ([1]; Ethanol, 80 °C, organic solvent or mixture, solvent Ethanol, KRN7000 100 μg/ml)
+: Variation with the passage of time after storage (by naked eye) ([2]; Polysorbate 20 0.1%, 2 weeks) | Variation with the passage of time after storage (by naked eye) ([2]; Polysorbate 20 0.2%, 2 weeks) | Variation with the passage of time after storage (by naked eye) ([2]; Polysorbate 20 0.3%, 1 month) | Variation with the passage of time after storage (by naked eye) ([2]; Polysorbate 20 0.5%, 1 month) | Variation with the passage of time after storage (by naked eye) ([2]; Polysorbate 20 1.0%, 1 month) | Variation with the passage of time after storage (by naked eye) ([2]; Polysorbate 20 2.0%, 1 month) | Variation with the passage of time after storage (by naked eye) ([2]; Polysorbate 20 4.0%, 1 month) | Variation with the passage of time after storage (by naked eye) ([2]; Polysorbate 20 8.0%, 1 month)
10 to 100 µg/mL: solubility at 20 min ([1]; 0.5% Polysorbate 80, 80 °C, aqueous with cosolvent or surfactant or cyclodextrin, solvent 0.5% Polysorbate 80, KRN7000 100 μg/ml) | solubility at 20 min ([1]; Glycerol, 80 °C, organic solvent or mixture, solvent Glycerol, KRN7000 100 μg/ml) | solubility at 20 min ([1]; Macrogol 400, 80 °C, organic solvent or mixture, solvent Macrogol 400, KRN7000 100 μg/ml) | solubility at 20 min ([1]; Propylene glycol, 80 °C, organic solvent or mixture, solvent Propylene glycol, KRN7000 100 μg/ml)
+ (not dissolved (or deposited)): Re-solubility after storage (by naked eye) ([3]; Histidine, 2 weeks) | Re-solubility after storage (by naked eye) ([3]; Sodium deoxycholate, 3 days)

Source: patent US6417167B1, “Lyophilized compositions containing shingoglycolipid and process for preparing them” (Kirin Beer Kabushiki Kaisha, priority 1997, dated 2002)
